Assay results taken from patent US11590117B2, “Treatment of a hematologic malignancy with 2-(4-chlorophenyl)-n-((2-(2,6-dioxopiperidin-3-yl)-1-oxoisoindolin-5-yl)methyl)-2,2-difluoroacetamide” (priority 2016, dated 2023).
Read-outs that look alike come from different tables or passages of the source.

Assays:
THLE-2 = test: CellTiter-Glo (CTG) cell proliferation assay, 72 hours, counter-screen; assay type: cell-based, human
Method: (§1) Preparation of Solutions of Test Article: Compounds were plated into black 384-well plates (Corning Inc.) to a final DMSO volume of 0.1% assuming a maximal volume of 50 μL. A 10-point dose response starting at 10 μM with a 1:3 dilution was printed in duplicate by acoustic dispense using the EDC ATS-100 platform.
(§2) Cell Proliferation Assays: The effect of Compound 1 on the proliferation/viability of the hematological cell lines (Table 1 Table, Table 2 and Table 3), THLE-2, or PBMCs was assessed after 72 hours incubation using CTG (Promega), according to manufacturer's instructions. Hematological cell lines were dispensed into compound plates by a Multidrop™ Combi Reagent Dispenser (Thermo Scientific, Waltham, Mass.) at a concentration of 0.1 to 0.3×10^6 cells per mL in a 50 μL total volume. THLE-2 cells were seeded out at 1000 cells per well in 50 μL volume and incubated for 72 hours. At 72 hours, 25 μL per well of CTG was dispensed by a Multidrop™ Combi Reagent Dispenser and adenosine triphosphate (ATP) release by viable cells was measured as relative luminescence units after 30 minutes using the Envision platform.
In order to calculate the therapeutic window for Compound 1, the compound was counter-screened against the immortalized (but non-tumorigenic) human hepatocyte-derived cell line THLE-2 (Pfeifer, et al, Proc Natl Acad Sci USA 1993 90(11):5123-5127) and against primary human PBMCs. […] The Compound 1 therapeutic window for the 10 sensitive AML cell lines as compared to THLE-2 cells ranged from 4.1 (KG-1a) to 57 (HNT-34) (method 1) or from 5.7 (KG-1a) to 79.5 (HNT-34) (method 2); the Compound 1 therapeutic window as compared to PBMCs ranged from 2.6 (KG-1a) to 36 (HNT-34)), or from 1.5 (KG-1a) to 21 (HNT-34) (Table 6).
Cultures of 11 different AML cell lines were incubated 72 hours with Compound 1 at concentrations of 0.5 nM to 10 μM. Proliferation was assessed using the CellTitre-Glo® assay. Results for cultures incubated with Compound 1 were normalized to results for control cultures for each cell line. […]

MDS progenitor cells = test: MDS colony forming assay in Methocult; assay type: cell-based, human; details: 24 hours exposure; compared with liquid culture
Method: Methods. The effect of Compound 1 on high risk MDS samples was measured in an in vitro liquid culture as well as by colony assays in order to better define its effect on stem/progenitor cells. Bone marrow mononuclear cells (BMMCs) from high risk MDS patients were cultured in vitro in CellGro medium (GellGenix) supplemented with hLDL (40 μg/mL), SCF (50 ng/mL), FLT3 […] (50 ng/mL), IL-3 (10 ng/mL), IL-6 (25 ng/mL) and TPO (100 ng/mL), all from Peprotech. During culture, cells were exposed to different concentrations of Compound 1 (37, 111, 333 and 1000 nM) or DMSO control. After 24 hours, cells were washed twice to remove compound and maintained in culture up to one week, performing viable cell counting on days 1, 3 and 7. Just after compound washout, […] per condition were collected for colony forming assays and another […] were stained for intracellular flow cytometry.
For colony forming assays cells were seeded in Methocult media (Stem Cell Technologies), incubated at 37° C. during 14 days and scored by automatic counting using StemVision (Stem Cell Technologies).

HL-60 human AML cells = assay type: in vivo, SCID mice; details: for reduction in percentage of human CD33+/CD45+ tumor cells in the BM: vs vehicle control
Method: In this study, Compound 1 antitumor activity in the HL-60 IV AML xenograft model was studies. In this model, HL-60 human AML cells engraft in host BM and internal organs (eg, spleen, liver) and animals develop progressive peripheral leukocytosis. Female severe combined immunodeficiency (SCID) mice were inoculated with HL-60 cells by tail vein injection. To understand the effect of Compound 1 on the xenografted HL-60 cells, animals were dosed intraperitoneal (IP) with vehicle or Compound 1 (0.5, 1, 2.5, and 5 mg/kg) once daily (QD)×5 between Weeks 3 and 4 post-engraftment (AP6516, survival study) or animals were dosed IP twice daily (BID) with vehicle or Compound 1 for 5 or 10 consecutive days (5 mg/kg BID×5 or 2.5 mg/kg, BID×10) between Weeks 6 and 8 post-engraftment (Study AP6982, % human CD33+[hCD33+] cells in BM).
In this study, different Compound 1 dosing schedules (5 mg/kg, BID×5 consecutive days versus 2.5 mg/kg, BID×10 consecutive days) were studied while maintaining the total amount of drug administered constant. Vehicle control animals were treated with 5% N-methyl-2-pyrrolidone (NMP)/45% PEG 400/50% saline. Treatment was initiated 6 weeks post inoculation. Vehicle and Compound 1 treatment groups were terminated either on Day 7 (following 5 consecutive days of 5 mg/kg twice a day [BID] Compound 1) or on Day 11 (following 10 consecutive days of 2.5 mg/kg BID Compound 1) post treatment initiation. The primary endpoint for the study was percentage of hCD33+/CD45+ cells in the BM by FACS analysis. Additional endpoints included cell viability, body weight, and BM histology.
HL-60 cells were identified from femur bone marrow samples by FACS analysis as CD33+/CD45+ with human specific antibodies. The percentage of human CD33+/CD45+ cells in the BM of vehicle-treated animals from the BID×5 and BID×10 groups were 47.5±6% and 55.2±6%, respectively.

OCI-AML2 = test: CellTiter-Glo (CTG) cell proliferation assay, 72 hours; assay type: cell-based, human
Method: as §1, §2
Proliferation was assessed using the CellTitre-Glo® assay. Results for cultures incubated with Compound 1 were normalized to results for control cultures for each cell line. The IC50 for inhibition of cell growth by Compound 1 was determined for each cell line using ActivityBase software.
Cultures of 11 different AML cell lines were incubated 72 hours with Compound 1 at concentrations of 0.5 nM to 10 μM. Proliferation was assessed using the CellTitre-Glo® assay. Results for cultures incubated with Compound 1 were normalized to results for control cultures for each cell line. Inhibition of cell growth was also determined in THLE-2 cells at Compound 1 concentrations of 0.1 nM to 100 μM and in PBMCs at Compound 1 concentrations of 0.5 nM to […]. The Compound 1 therapeutic window was calculated using area under the curve (AUC; Activity Area [Barretina et al, Nature (2012) 483603-607] measurements (in arbitrary units) as determined using GraphPad Prism software for plots of cell proliferation vs concentration and dividing the AUC for the immortalized (but nontumorigenic) human THLE-2 hepatocyte cell line or PBMCs by the AUC for the AML cell line.

[1] = THLE-2 normal cells, 0.1 nM to 100 μM
[2] = OCI-AML2, AUC PBMCs divided by AUC AML cell line
[3] = OCI-AML2, AUC THLE-2 divided by AUC AML cell line

## O=C1CCC(N2Cc3cc(CNC(=O)C(F)(F)c4ccc(Cl)cc4)ccc3C2=O)C(=O)N1 (centres unmarked) [Compound 1, 2-(4-chlorophenyl)-N-((2-(2,6-dioxopiperidin-3-yl)-1-oxoisoindolin-5-yl)methyl)-2,2-difluoroacetamide]
THLE-2; Homo sapiens, THLE-2, 72 h, THLE-2 non-tumorigenic human hepatocyte-derived cell line, 72 hours, read-out: antiproliferative IC50
  IC50: 10 µM
THLE-2; [1]
  AUC Method 1: 393.0 arbitrary units
  AUC Method 2: 549.1 arbitrary units
MDS progenitor cells
  effect on MDS progenitor cells in colony forming assays: more acute
HL-60 human AML cells; 2.5 mg/kg IP BID×10
  human CD33+/CD45+ cells in the BM: 15.7%
HL-60 human AML cells; 2.5 mg/kg IP BID×10, p<0.0001
  reduction in percentage of human CD33+/CD45+ tumor cells in the BM: 71.5%
HL-60 human AML cells; 5 mg/kg IP BID×5
  human CD33+/CD45+ cells in the BM: 21.9%
HL-60 human AML cells; 5 mg/kg IP BID×5, p=0.0013
  reduction in percentage of human CD33+/CD45+ tumor cells in the BM: 54.0%
OCI-AML2; Homo sapiens, OCI-AML2, 72 h, read-out: Proliferation IC50 (mean ± SD)
  IC50: 0.057 ± 0.021 µM
OCI-AML2; [2]
  Therapeutic Window Method 1 As Compared with PBMCs: 14
  Therapeutic Window Method 2 As Compared with PBMCs: 8.1
OCI-AML2; [3]
  Therapeutic Window Method 1 As Compared with THLE-2 Cells: 22
  Therapeutic Window Method 2 As Compared with THLE-2 Cells: 30.7
OCI-AML2; OCI-AML2, Activity Area of proliferation vs concentration, 72 hours, 0.5 nM to 10 μM
  AUC: 17.9 arbitrary units
